Data as given in PMC11785791, “Cryo-EM structure of the calcium-sensing receptor complexed with the kokumi substance γ-glutamyl-valyl-glycine” (Scientific Reports, 2025).
Substitutions are numbered along the chain they refer to. Where two headings read alike, the source gives them in different places. *1 amine or outer side, *2 acyl side, *3 side chain or, on linkers, in order; H or OH if unused. Where a SMILES comes first, the peptide text is derived from it. γGlu = O=C(O)[CH](CCC(=O)[*:2])N[*:1]

What was measured:
human CaSR N102F mutant = target: T1, human CaSR N102F mutant (Homo sapiens, UniProt P41180, N102F); assay: Calcium mobilization assay, CaSR N102F mutant; format: cell-based; conditions: for Response in calcium mobilization assay: in words, compared with wild type; for Emax: read-out: Emax (% of wild-type values)
T1 construct: (N); expressed in transfected cells; host or cells: PEAKrapid cells (ATCC), pcDNA 3.1, transient transfection
T1 sequence (P41180 20-1078 N102F): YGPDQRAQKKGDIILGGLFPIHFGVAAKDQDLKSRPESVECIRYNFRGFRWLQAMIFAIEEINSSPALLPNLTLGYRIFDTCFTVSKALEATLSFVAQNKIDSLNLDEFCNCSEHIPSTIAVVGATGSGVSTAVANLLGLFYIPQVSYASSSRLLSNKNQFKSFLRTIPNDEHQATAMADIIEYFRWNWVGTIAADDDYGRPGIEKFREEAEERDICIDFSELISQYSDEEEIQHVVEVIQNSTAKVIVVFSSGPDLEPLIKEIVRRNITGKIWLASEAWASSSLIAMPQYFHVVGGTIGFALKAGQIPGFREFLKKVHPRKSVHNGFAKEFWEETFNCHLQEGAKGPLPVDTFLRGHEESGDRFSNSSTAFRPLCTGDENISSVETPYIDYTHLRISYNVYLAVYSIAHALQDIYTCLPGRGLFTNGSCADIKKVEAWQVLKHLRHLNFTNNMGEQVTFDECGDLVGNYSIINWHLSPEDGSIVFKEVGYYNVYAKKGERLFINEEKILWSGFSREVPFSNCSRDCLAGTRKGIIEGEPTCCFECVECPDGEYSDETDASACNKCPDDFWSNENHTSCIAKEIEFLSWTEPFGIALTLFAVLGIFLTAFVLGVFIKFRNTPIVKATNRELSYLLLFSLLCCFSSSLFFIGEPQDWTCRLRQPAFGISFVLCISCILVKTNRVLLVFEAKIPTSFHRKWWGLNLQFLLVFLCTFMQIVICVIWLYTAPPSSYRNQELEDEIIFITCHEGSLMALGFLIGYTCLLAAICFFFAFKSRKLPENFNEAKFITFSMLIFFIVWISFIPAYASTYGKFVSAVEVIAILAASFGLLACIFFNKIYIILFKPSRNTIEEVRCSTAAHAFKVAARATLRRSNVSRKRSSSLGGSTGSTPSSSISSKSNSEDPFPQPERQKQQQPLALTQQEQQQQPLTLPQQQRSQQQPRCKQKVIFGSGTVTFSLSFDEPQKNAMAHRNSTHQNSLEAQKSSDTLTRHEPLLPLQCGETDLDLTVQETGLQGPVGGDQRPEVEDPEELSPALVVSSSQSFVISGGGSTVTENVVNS
Experimental: (§1) The CaSR receptor responsiveness was assessed by using PEAK^rapid cells (ATCC, Manassas, VA, USA) transiently transfected with the receptor DNA by the method reported by Kitajima et al.[6]. Briefly, human CaSR or its mutant cDNA with a signal sequence (MAFYSCCWVLLALTWHTSA) followed by FLAG-tag (DYKDDDDK) were inserted into pcDNA 3.1 expression vectors in Opti-MEM I medium (Thermo Fisher Scientific), mixed with FuGENE 6 (Roche), and poured onto PEAK^rapid cells grown at a submaximal concentration. After culturing for 24 h in 96-well plates, the cells were incubated with 5 µM Calcium-5 solution (Calcium-5 assay kit, Molecular Devices) for 45–60 min, and measurements were performed using a plate reader (FDSS/µCELL, Hamamatsu Photonics, Shizuoka, Japan) and its associated software. The activation of CaSR expressed in cells increases the intracellular Ca^2+ concentration, which is measured using a Ca^2+-sensitive dye. The binding of Ca^2+ to the Ca^2+-sensitive dye increases dye fluorescence, with excitation at 485 nm and emission at 525 nm. Test compounds were dissolved and administered in the assay buffer (146 mM NaCl, 1 mM MgSO4, 20 mM HEPES, 1 mM CaCl2, 2.5 mM probenecid, and 1.39 mM glucose, pH 7.4). Transiently transfected cells were challenged with compounds and compared with the vehicle alone and/or mock-transfected cells. The concentration dependence of the fluorescence intensity (influx of Ca^2+) was analyzed using the plate reader at 1 s intervals for 180 s. For the dose–response curve calculations, peak fluorescence responses after the addition of compounds were corrected for, normalized to the background fluorescence (ΔF/F = –F − F0)/F0), and baseline noise was subtracted. Dose–response curves were calculated by non-linear regression using GraphPad PRISM 8.0.

human CaSR R66E mutant = target: T2, human CaSR R66E mutant (Homo sapiens, UniProt P41180, R66E); assay: Calcium mobilization assay, CaSR R66E mutant; format: cell-based; conditions: for Response in calcium mobilization assay: in words
T2 construct: (N); expressed in transfected cells; host or cells: PEAKrapid cells (ATCC), pcDNA 3.1, transient transfection
T2 sequence (P41180 20-1078 R66E): T1 sequence (P41180 20-1078 N102F) with R47E, F83N
Experimental: as §1

[1] = N102F mutant, mean ± s.e.m., n = 3, read-out: EC50

Row | SMILES | Emax (% of wild-type values) (human CaSR N102F mutant; N102F mutant) | EC50 (human CaSR N102F mutant; [1]) | Emax (% of wild-type values) (human CaSR R66E mutant) | EC50 (human CaSR R66E mutant; mean ± s.e.m., n = 3) | Response in calcium mobilization assay (human CaSR N102F mutant; N102F mutant) | Emax (human CaSR N102F mutant; N102F mutant) | Response in calcium mobilization assay (human CaSR R66E mutant) | EC50 of N102F mutant relative to wild-type EC50 (human CaSR N102F mutant; 6.52 / 0.18, N102F vs wild type) | EC50 (human CaSR N102F mutant; N102F mutant, read-out: EC50 of the N102F mutant) | Emax (human CaSR N102F mutant)
1 | [Ca+2].[Cl-].[Cl-] [CaCl2] | 87.8 % of WT | 2.75 ± 0.21 mM | 105.0 % of WT | 3.47 ± 0.4 mM | – | – | – | – | – | –
2 | N[C@@H](Cc1ccc(O)cc1)C(=O)O [L-Tyr, L-tyrosine] | – | 2.16 ± 0.4 mM | – | – | more active than the wild type | 132% | no response | – | – | –
3 | CC(C)[C@H](NC(=O)CC[C@H](N)C(=O)O)C(=O)O [γ-EV, γ-glutamyl-valine] | 194.8 % of WT | 0.00448 ± 0.0002 mM | – | – | more active than the wild type | – | no response | – | – | –
4 | CC(C)C(NC(=O)CCC(N)C(=O)O)C(=O)NCC(=O)O (stereo not drawn) [γ-EVG, γ-glutamyl-valyl-glycine] (γGlu-Val-Gly-OH; configuration not given here) | – | – | – | – | – | – | completely abolished the activity | approximately 36.2 fold | 0.00652 ± 0.0001 mM | 95.7%
